Patent US20210302366A1, “Method for Pathogen Detection” (priority 2020, published 2021)
Converted amounts (≈) assume the structure as drawn.

How the values were obtained:
Pseudomonas aeruginosa = assay: pathogen detection chip (differential drain current) with agar plating, Pseudomonas aeruginosa; type: cell-based; details: for biological sample resistant or sensitive to the interacting agent: from electrical signal pattern and CFU; for trend of number of colony-forming unit (CFU) from agar plating: over the course of culturing
Source text: (§1) The drain voltage Vds may cause a drain current Ids to be measured as the electrical signal. In some embodiments, during the course of culturing the biological sample 207A, metabolites and/or the ions of the biological sample 207A generated due to the interaction of which with the interacting agents 207B may cause the front gate voltage Vgs-fg to change and thus the change of drain voltage Vds as well as the measured drain current Ids. By analyzing the electrical signal of the differential drain current ΔIds, several characteristics of the biological sample 207A can be determined within a short time frame and at a relative low sample concentration. In some embodiments, the sensor 20 may occupies a footprint of 5 μm by 5 μm. A bias of +1.8V can be applied to the first gate 209 and a bias of −0.5V can be applied to the second gate 209′ during the measurement of drain current Ids.
(§2) Two approaches can be used to measure the differential drain current ΔIds. One approach is to subtract the drain current Ids measured from a control group of the sensor 20 where no biological sample is introduced into the culturing medium 207 from the drain current Ids measured from an experimental group of the sensor 20 where biological sample is introduced into the culturing medium 207 during the course of culturing. The other approach is to subtract the initial drain current Ids (e.g. at t=0) from the drain current Ids measured from an experimental group of the sensor 20 where biological sample is introduced into the culturing medium 207 during the course of culturing. The latter approach can be adopted for real-time pathogen detection, and the former approach can be adopted in a more systematic study where the concentration of biological sample and the pH value of the culturing medium 207 can be recorded simultaneously.
(§3) To prepare the culturing medium, 200 μL of non-buffered LB broth having predetermined dosages (including zero dosage) of interacting agent was inoculated with predetermined concentration of Pseudomonas aeruginosa and cultured at a temperature of 37° C. The sample was subjected to the pathogen detection using the pathogen detection chip and sensor described herein with a front gate voltage of +1.8V and a back gate voltage of −0.5V for drain current Ids measurement at predetermined time points (e.g., at each hour). The differential drain current ΔIds can be determined using the two approaches previously described, including (1) subtracting the drain current Ids measured from a control group from the drain current Ids measured from an experimental group during the course of culturing; and (2) subtracting the initial drain current Ids (e.g. at t=0) from the drain current Ids measured from an experimental group during the course of culturing. When the former approach is taken, the concentration of biological sample can be determined by agar plating under the same environmental condition.
Sample preparation and measurement condition can be referred to those in Example 3A and are not repeated here for brevity. […] For example, in Example 3B, a differential drain current ΔIds of about 0.16 μA can be identified as a blip in the electrical signal.

Staphylococcus aureus = assay: pathogen detection chip (differential drain current) with agar plating, Staphylococcus aureus; type: cell-based; details: for blips/sub-blips identified in the electrical signal: first 8 hours of culturing; for biological sample resistant or sensitive to the interacting agent: from electrical signal pattern and CFU; for trend of number of colony-forming unit (CFU) from agar plating: over the course of culturing
Source text: as §1, §2
as §3, with “Staphylococcus aureus” for “Pseudomonas aeruginosa”
Sample preparation and measurement condition can be referred to those in Example 2A and are not repeated here for brevity.

Escherichia coli K12 = assay: minimum inhibitory concentration (MIC) test; type: cell-based
Escherichia coli pku57 = assay: microbe, parasite or virus in culture
Experimental: To prepare the culturing medium, 200 μL of non-buffered LB broth having predetermined dosages (including zero dosage) of interacting agent was inoculated with predetermined concentration of Escherichia coli and cultured at a temperature of 37° C. The sample was subjected to the pathogen detection using the pathogen detection chip and sensor described herein with a front gate voltage of +1.8V and a back gate voltage of −0.5V for drain current Ids measurement at predetermined time points (e.g., at each hour). The differential drain current ΔIds can be determined using the two approaches previously described, including (1) subtracting the drain current Ids measured from a control group from the drain current Ids measured from an experimental group during the course of culturing; and (2) subtracting the initial drain current Ids (e.g. at t=0) from the drain current Ids measured from an experimental group during the course of culturing. When the former approach is taken, the concentration of biological sample can be determined by agar plating under the same environmental condition.

Escherichia coli = assay: pathogen detection chip (differential drain current) with agar plating, Escherichia coli; type: cell-based; details: for differential drain current ΔIds, local maximum: 2nd hour of culturing
Source text: as §1, §2
as §3, with “Escherichia coli” for “Pseudomonas aeruginosa”
Sample preparation and measurement condition can be referred to those in Example 4A and are not repeated here for brevity. […] For example, in Example 4B, a differential drain current ΔIds of greater than 0.07 μA (e.g., about 0.08 μA) can be identified as a blip in the electrical signal. In addition, a differential drain current ΔIds of about 0.04 μA can be identified as a sub-blip at the 6th hour. As previously described, electrical signal lower than 0.03 μA is not considered as a blip or a sub-blip in some of the embodiments.

Klebsiella pneumoniae = assay: pathogen detection chip (differential drain current) with agar plating, Klebsiella pneumoniae; type: cell-based
Source text: The drain voltage Vds may cause a drain current Ids to be measured as the electrical signal. In some embodiments, during the course of culturing the biological sample 207A, metabolites and/or the ions of the biological sample 207A generated due to the interaction of which with the interacting agents 207B may cause the front gate voltage Vgs-fg to change and thus the change of drain voltage Vds as well as the measured drain current Ids. By analyzing the electrical signal of the differential drain current ΔIds, several characteristics of the biological sample 207A can be determined within a short time frame and at a relative low sample concentration. […] A bias of +1.8V can be applied to the first gate 209 and a bias of −0.5V can be applied to the second gate 209′ during the measurement of drain current Ids.
To prepare the culturing medium, 200 μL of non-buffered LB broth having predetermined dosages (including zero dosage) of interacting agent was inoculated with predetermined concentration of Klebsiella pneumoniae and cultured at a temperature of 37° C. […]

[1] = from electrical signal pattern and CFU
[2] = throughout the first 9 hour of culturing

CC1(C)S[C@@H]2[C@H](NC(=O)[C@H](N)c3ccccc3)C(=O)N2[C@H]1C(=O)O [Ampicillin]
differential drain current ΔIds, blip (Pseudomonas aeruginosa; 1st hour of culturing): about 0.16 μA | biological sample resistant or sensitive to the interacting agent (Pseudomonas aeruginosa): resistant | trend of number of colony-forming unit (CFU) from agar plating (Pseudomonas aeruginosa): monotonic increasing | blips/sub-blips identified in the electrical signal (Staphylococcus aureus): no blips or sub-blips (a differential drain current ΔIds showing local maximum lower than 0.03 μA is not identified as a blip or a sub-blip) | biological sample resistant or sensitive to the interacting agent (Staphylococcus aureus): sensitive | trend of number of colony-forming unit (CFU) from agar plating (Staphylococcus aureus): monotonic decreasing | differential drain current ΔIds (Staphylococcus aureus; throughout the first 8 hour of culturing): lower than 0.03 μA

NC[C@H]1O[C@H](O[C@H]2[C@H](O)[C@@H](O[C@H]3O[C@H](CO)[C@@H](O)[C@H](N)[C@H]3O)[C@H](N)C[C@@H]2N)[C@H](O)[C@@H](O)[C@@H]1O [Kanamycin]
MIC (Escherichia coli K12): 25 µg/mL (≈ 51.6 µM) | MIC (Escherichia coli pku57): < 50 µg/mL | differential drain current ΔIds, local maximum (Escherichia coli): about 0.08 μA | differential drain current ΔIds, sub-blip (Escherichia coli; 6th hour of culturing): about 0.04 μA

CN[C@@H]1[C@H](O)[C@H](NC)[C@H]2O[C@@]3(O)C(=O)C[C@@H](C)O[C@H]3O[C@@H]2[C@H]1O [Spectinomycin]
differential drain current ΔIds, local maximum (Escherichia coli): about 0.05 μA | biological sample resistant or sensitive to the interacting agent (Escherichia coli; [1]): sensitive | trend of number of colony-forming unit (CFU) from agar plating (Escherichia coli; over the course of culturing): neither increasing or decreasing | differential drain current ΔIds (Escherichia coli; [2]): lower than 0.07 μA

Gentamicin
blips/sub-blips identified in the electrical signal (Pseudomonas aeruginosa; first 9 hour of culturing): no blips or sub-blips (a differential drain current ΔIds showing local maximum lower than 0.03 μA is not identified as a blip or a sub-blip) | biological sample resistant or sensitive to the interacting agent (Pseudomonas aeruginosa): sensitive | trend of number of colony-forming unit (CFU) from agar plating (Pseudomonas aeruginosa): monotonic decreasing | differential drain current ΔIds (Pseudomonas aeruginosa; [2]): lower than 0.03 μA | blips/sub-blips identified in the electrical signal (Staphylococcus aureus): a blip at the 2nd hour and a sub-blip at the 5th hour | biological sample resistant or sensitive to the interacting agent (Staphylococcus aureus): resistant | trend of number of colony-forming unit (CFU) from agar plating (Staphylococcus aureus): monotonic increasing | differential drain current ΔIds, blip (Klebsiella pneumoniae; 3rd hour of culturing, LB broth, 37° C.): about 0.15 μA | biological sample resistant or sensitive to the interacting agent (Klebsiella pneumoniae; [1]): resistant | trend of number of colony-forming unit (CFU) from agar plating (Klebsiella pneumoniae; over the course of culturing): monotonic increasing
